In one assay the target is vanilloid receptor 1 (VR1/TRPV1) (Homo sapiens (Human), UniProt Q8NER1). The assay can be described thus: FLIPR assay, Ca2+ influx in CHO K1 cells transfected with the human VR1 gene. Type of assay: cell-based. The following applies: compound 5 μM, % activation compared with control capsaicin 10 μM. The procedure: Furthermore, preference may be given to compounds according to the first aspect of the invention that cause a 50% displacement of capsaicin, which is present at a concentration of 100 nM, in a FLIPR assay with CHO K1 cells which were transfected with the human VR1 gene at a concentration of less than 2 000 nM, preferably less than 1 000 nM, particularly preferably less than 300 nM, most particularly preferably less than 100 nM, even more preferably less than 75 nM, additionally preferably less than 50 nM, most preferably less than 10 nM. In the process, the Ca^2+ influx is quantified in the FLIPR assay with the aid of a Ca^2+-sensitive dye (type Fluo-4, Molecular Probes Europe BV, Leiden, the Netherlands) in a fluorescent imaging plate reader (FLIPR, Molecular Devices, Sunnyvale, USA), as described hereinafter.
Chain of vanilloid receptor 1 (VR1/TRPV1) (Q8NER1 whole entry): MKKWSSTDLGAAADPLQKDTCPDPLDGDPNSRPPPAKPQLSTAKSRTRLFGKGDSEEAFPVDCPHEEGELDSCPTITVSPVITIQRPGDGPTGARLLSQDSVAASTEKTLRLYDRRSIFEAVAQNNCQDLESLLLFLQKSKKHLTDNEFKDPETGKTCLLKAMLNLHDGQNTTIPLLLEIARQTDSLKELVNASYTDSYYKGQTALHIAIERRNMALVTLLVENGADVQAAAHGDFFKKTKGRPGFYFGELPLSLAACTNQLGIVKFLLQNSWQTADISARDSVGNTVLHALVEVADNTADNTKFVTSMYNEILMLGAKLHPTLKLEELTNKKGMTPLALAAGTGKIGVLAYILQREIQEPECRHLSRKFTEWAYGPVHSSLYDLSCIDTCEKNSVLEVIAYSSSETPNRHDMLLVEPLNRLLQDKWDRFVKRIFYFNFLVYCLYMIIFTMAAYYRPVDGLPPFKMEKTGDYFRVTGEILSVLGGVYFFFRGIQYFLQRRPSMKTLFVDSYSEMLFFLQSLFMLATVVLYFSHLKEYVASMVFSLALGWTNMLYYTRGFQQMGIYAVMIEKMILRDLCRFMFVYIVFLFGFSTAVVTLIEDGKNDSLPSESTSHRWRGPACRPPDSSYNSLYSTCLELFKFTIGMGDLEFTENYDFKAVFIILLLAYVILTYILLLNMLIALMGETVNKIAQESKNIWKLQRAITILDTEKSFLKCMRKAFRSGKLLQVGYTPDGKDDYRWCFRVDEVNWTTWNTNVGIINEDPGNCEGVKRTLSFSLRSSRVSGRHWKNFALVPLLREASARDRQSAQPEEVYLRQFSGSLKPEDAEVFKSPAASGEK
The FLIPR protocol consists of 2 substance additions during a kinetic measurement. First the compounds to be tested (5 μM) are pipetted onto the cells and the Ca^2+ influx is determined in comparison to the control (capsaicin 10 μM), providing the result as % activation and representing the compound-alone effect (calculation at peak signal related to baseline). […] After 5 min incubation, the Ca^2+ influx is related to an injection of 100 nM of capsaicin and thereby the antagonistic effect of the test compounds detected.
Desensitising agonists and antagonists lead to suppression of the Ca^2+ influx. The % inhibition is calculated compared to the maximum achievable inhibition with 10 μM of capsaicin. Triple analyses (n=3) are carried out and repeated in at least 3 independent experiments.
Starting from the percentage displacement caused by different concentrations of the compounds to be tested of general formula I, IC50 inhibitory concentrations which cause a 50-% displacement of capsaicin were calculated. Ki values for the test substances were obtained by conversion by means of the Cheng-Prusoff equation (Cheng, Prusoff; Biochem. Pharmacol. 22, 3099-3108, 1973).
Chinese hamster ovary cells (CHO K1 cells, European Collection of Cell Cultures (ECACC) United Kingdom) are stably transfected with the VR1 gene. For functional testing, these cells are plated out on poly-D-lysine-coated black 96-well plates having a clear base (BD Biosciences, Heidelberg, Germany) at a density of 25,000 cells/well. The cells are incubated overnight at 37° C. and 5% CO2 in a culture medium (Ham's F12 nutrient mixture, 10% by volume of FCS (foetal calf serum), 18 μg/ml of L-proline). The next day the cells are incubated with Fluo-4 (Fluo-4 2 μM, 0.01% by volume of Pluronic F127, Molecular Probes in HBSS (Hank's buffered saline solution), Gibco Invitrogen GmbH, Karlsruhe, Germany) for 30 min at 37° C. Subsequently, the plates are washed three times with HBSS buffer and after further incubation for 15 min at RT used for Ca^2+ measurement in a FLIPR assay. The Ca^2+-dependent fluorescence is measured before and after the addition of the substances to be tested (λex wavelength=488 nm, λem=540 nm). Quantification is carried out by measuring the highest fluorescence intensity (FC, fluorescence counts) over time.
With `Cc1cccc(-c2nc(C(C)(C)C)sc2CNC(=O)C(C)c2ccc(CNS(C)(=O)=O)c(F)c2)c1` (centres unmarked) [EX-04, N-((2-(tert-butyl)-4-(m-tolyl)thiazol-5-yl)methyl)-2-(3-fluoro-4-(methylsulfonamidomethyl)phenyl)propanamide], the “compound-alone effect on Ca2+ influx (agonist / partial agonist)” value was “pAG (A Ca^2+ influx of 10%-60% reveals a partial agonist (pAG))”.

Regarding `CC(C(=O)NCc1sc(C(C)(C)C)nc1-c1cccc(Cl)c1)c1ccc(CO)c(F)c1` (centres unmarked) [EX-07, N-((2-(tert-butyl)-4-(3-chlorophenyl)thiazol-5-yl)methyl)-2-(3-fluoro-4-(hydroxymethyl)phenyl)propanamide], the “compound-alone effect on Ca2+ influx (agonist / partial agonist)” value is on record as “AG (a Ca^2+ influx of >60% relates to a pure agonist (AG))”.

Regarding `Cc1cccc(-c2nc(C(C)(C)C)sc2CNC(=O)C(C)c2ccc(CO)c(F)c2)c1` (centres unmarked) [EX-08, N-((2-(tert-butyl)-4-(m-tolyl)thiazol-5-yl)methyl)-2-(3-fluoro-4-(hydroxymethyl)phenyl)propanamide], the “compound-alone effect on Ca2+ influx (agonist / partial agonist)” value is recorded as “AG (a Ca^2+ influx of >60% relates to a pure agonist (AG))”.

For the molecule `CC(C(=O)NCc1oc(C(F)(F)F)nc1-c1cccc(Cl)c1)c1ccc(C2(O)COC2)cc1` (centres unmarked) [EX-09, N-((4-(3-chlorophenyl)-2-(trifluoromethyl)oxazol-5-yl)methyl)-2-(4-(3-hydroxyoxetan-3-yl)phenyl)propanamide], the “compound-alone effect on Ca2+ influx (agonist / partial agonist)” value is “pAG (A Ca^2+ influx of 10%-60% reveals a partial agonist (pAG))”.

As to `CC(C(=O)NCc1sc(C(F)(F)F)nc1-c1cccc(Cl)c1)c1ccc(C2(O)COC2)cc1` (centres unmarked) [EX-10, N-((4-(3-chlorophenyl)-2-(trifluoromethyl)thiazol-5-yl)methyl)-2-(4-(3-hydroxyoxetan-3-yl)phenyl)propanamide], the “compound-alone effect on Ca2+ influx (agonist / partial agonist)” value is given as “pAG (A Ca^2+ influx of 10%-60% reveals a partial agonist (pAG))”.

Still in this assay, the particulars now being: displacement of capsaicin 100 nM; Ki from IC50 by Cheng-Prusoff equation; read-out: (f) Ki (human) [nM] Cap.
Usually Ki stands for a measure of affinity in units of concentration, obtained from inhibition or displacement. For `CC(C(=O)NCc1sc(C(F)(F)F)nc1-c1cccc(Cl)c1)c1ccc(NCCO)nc1` (single isomer, unassigned) [EX-15, N-((4-(3-chlorophenyl)-2-(trifluoromethyl)thiazol-5-yl)methyl)-2-(6-((2-hydroxyethyl)amino)pyridin-3-yl)propanamide], the Ki was determined as 0.4 nM.

In the case of `CC(C(=O)NCc1sc(C(F)(F)F)nc1-c1cccc(Cl)c1)c1ccc(NCCO)nc1` (single isomer, unassigned) [EX-16, N-((4-(3-chlorophenyl)-2-(trifluoromethyl)thiazol-5-yl)methyl)-2-(6-((2-hydroxyethyl)amino)pyridin-3-yl)propanamide], the Ki was found to be 41.9 nM.

Take `CC(C(=O)NCc1oc(C(F)(F)F)nc1-c1cccc(Cl)c1)c1ccc(NCCO)nc1` (single isomer, unassigned) [EX-17, N-((4-(3-chlorophenyl)-2-(trifluoromethyl)oxazol-5-yl)methyl)-2-(6-((2-hydroxyethyl)amino)pyridin-3-yl)propanamide]: the Ki was 0.7 nM.

In the case of `CC(C(=O)NCc1oc(C(F)(F)F)nc1-c1cccc(Cl)c1)c1ccc(NCCO)nc1` (single isomer, unassigned) [EX-18, N-((4-(3-chlorophenyl)-2-(trifluoromethyl)oxazol-5-yl)methyl)-2-(6-((2-hydroxyethyl)amino)pyridin-3-yl)propanamide], the Ki was found to be 96.7 nM.

As to `CC(C(=O)NCc1sc(C(F)(F)F)nc1-c1cccc(Cl)c1)c1ccc(CCO)c(F)c1` (centres unmarked) [EX-01, N-((4-(3-chlorophenyl)-2-(trifluoromethyl)thiazol-5-yl)methyl)-2-(3-fluoro-4-(2-hydroxyethyl)phenyl)-propanamide], the Ki was 1.4 nM.

Turning to `CC(C(=O)NCc1oc(C(F)(F)F)nc1-c1cccc(Cl)c1)c1ccc(CCO)c(F)c1` (centres unmarked) [EX-02, N-((4-(3-chlorophenyl)-2-(trifluoromethyl)oxazol-5-yl)methyl)-2-(3-fluoro-4-(2-hydroxyethyl)-phenyl)propanamide], the Ki was 28.4 nM.

Turning to `CC(C(=O)NCc1sc(C(C)(C)C)nc1-c1cccc(Cl)c1)c1ccc(CNS(C)(=O)=O)c(F)c1` (centres unmarked) [EX-03, N-((2-(tert-butyl)-4-(3-chlorophenyl)thiazol-5-yl)methyl)-2-(3-fluoro-4-(methylsulfonamido-methyl)phenyl)propanamide], the Ki came out at 0.6 nM.

On to `Cc1cccc(-c2nc(C(C)(C)C)sc2CNC(=O)C(C)c2ccc(CNS(C)(=O)=O)c(F)c2)c1` (centres unmarked) [EX-04, N-((2-(tert-butyl)-4-(m-tolyl)thiazol-5-yl)methyl)-2-(3-fluoro-4-(methylsulfonamidomethyl)phenyl)propanamide], for which the Ki is 1 nM.

Take `CC(C(=O)NCc1oc(C(F)(F)F)nc1-c1cccc(Cl)c1)c1ccc(CNS(N)(=O)=O)cc1` (centres unmarked) [EX-05, N-((4-(3-chlorophenyl)-2-(trifluoromethyl)oxazol-5-yl)methyl)-2-(4-((sulfamoylamino)methyl)-phenyl)propanamide]: the Ki is 7.5 nM.

As to `CC(C(=O)NCc1sc(C(F)(F)F)nc1-c1cccc(Cl)c1)c1ccc(CNS(N)(=O)=O)cc1` (centres unmarked) [EX-06, N-((4-(3-chlorophenyl)-2-(trifluoromethyl)thiazol-5-yl)methyl)-2-(4-((sulfamoylamino)methyl)-phenyl)propanamide], the Ki was determined as 0.7 nM.

With `CC(C(=O)NCc1oc(C(F)(F)F)nc1-c1cccc(Cl)c1)c1ccc(C2(O)COC2)cc1` (centres unmarked) [EX-09, N-((4-(3-chlorophenyl)-2-(trifluoromethyl)oxazol-5-yl)methyl)-2-(4-(3-hydroxyoxetan-3-yl)phenyl)propanamide], the Ki amounted to 73.8 nM.

In the case of `CC(C(=O)NCc1sc(C(F)(F)F)nc1-c1cccc(Cl)c1)c1ccc(C2(O)COC2)cc1` (centres unmarked) [EX-10, N-((4-(3-chlorophenyl)-2-(trifluoromethyl)thiazol-5-yl)methyl)-2-(4-(3-hydroxyoxetan-3-yl)phenyl)propanamide], the Ki came out at 8.8 nM.

Take `CC(C(=O)NCc1oc(C(F)(F)F)nc1-c1cccc(Cl)c1)c1cnc(CCS(C)(=O)=O)c(F)c1` (centres unmarked) [EX-11, N-((4-(3-chlorophenyl)-2-(trifluoromethyl)oxazol-5-yl)methyl)-2-(5-fluoro-6-(2-(methylsulfonyl)ethyl)pyridin-3-yl)propanamide]: the Ki is 53.1 nM.

In the case of `CC(C(=O)NCc1sc(C(F)(F)F)nc1-c1cccc(Cl)c1)c1cnc(CCS(C)(=O)=O)c(F)c1` (centres unmarked) [EX-12, N-((4-(3-chlorophenyl)-2-(trifluoromethyl)thiazol-5-yl)methyl)-2-(5-fluoro-6-(2-(methylsulfonyl)ethyl)pyridin-3-yl)propanamide], the Ki came to 1.1 nM.

Consider `CC(C(=O)NCc1oc(C(F)(F)F)nc1-c1cccc(Cl)c1)c1ccc(NCCO)nc1` (centres unmarked) [EX-13, N-((4-(3-chlorophenyl)-2-(trifluoromethyl)oxazol-5-yl)methyl)-2-(6-((2-hydroxyethyl)amino)pyridin-3-yl)propanamide], for which the Ki came to 5.2 nM.

On to `CC(C(=O)NCc1sc(C(F)(F)F)nc1-c1cccc(Cl)c1)c1ccc(NCCO)nc1` (centres unmarked) [EX-14, N-((4-(3-chlorophenyl)-2-(trifluoromethyl)thiazol-5-yl)methyl)-2-(6-((2-hydroxyethyl)amino)pyridin-3-yl)propanamide], for which the Ki was found to be 0.7 nM.

`CC(C(=O)NCc1oc(C(F)(F)F)nc1-c1cccc(Cl)c1)c1cnc(CO)c(F)c1` (centres unmarked) [EX-19, N-((4-(3-chlorophenyl)-2-(trifluoromethyl)oxazol-5-yl)methyl)-2-(5-fluoro-6-(hydroxymethyl)pyridin-3-yl)propanamide]: the inhibition constant Ki was found to be 13.8 nM.

Turning to `CC(C(=O)NCc1sc(C(F)(F)F)nc1-c1cccc(Cl)c1)c1cnc(CO)c(F)c1` (centres unmarked) [EX-20, N-((4-(3-chlorophenyl)-2-(trifluoromethyl)thiazol-5-yl)methyl)-2-(5-fluoro-6-(hydroxymethyl)pyridin-3-yl)propanamide], the Ki was 0.3 nM.

For `CC(C(=O)NCc1oc(C(F)(F)F)nc1-c1cccc(Cl)c1)c1ccc(CNS(N)(=O)=O)c(F)c1` (centres unmarked) [EX-23, N-((4-(3-chlorophenyl)-2-(trifluoromethyl)oxazol-5-yl)methyl)-2-(3-fluoro-4-((sulfamoylamino)methyl)phenyl)propanamide], the Ki came to 4.7 nM.

The same assay, now with this note: inhibition <10% @5 μM.
For `CC(C(=O)NCc1oc(C(F)(F)F)nc1-c1cccc(Cl)c1)c1cnc(CO)c(F)c1` (centres unmarked) [EX-21, N-((4-(3-chlorophenyl)-2-(trifluoromethyl)oxazol-5-yl)methyl)-2-(5-fluoro-6-(hydroxymethyl)pyridin-3-yl)propanamide], the “(f) Ki (human) Cap: no effect” value was “ne (ne=no effect (<10% @5 μM))”.

Turning to `CC(C(=O)NCc1oc(C(F)(F)F)nc1-c1cccc(Cl)c1)c1cnc(CO)c(F)c1` (centres unmarked) [EX-22, N-((4-(3-chlorophenyl)-2-(trifluoromethyl)oxazol-5-yl)methyl)-2-(5-fluoro-6-(hydroxymethyl)pyridin-3-yl)propanamide], the “(f) Ki (human) Cap: no effect” value is “ne (ne=no effect (<10% @5 μM))”.
